Results from PubChem BioAssay AID248 (DTP/NCI, 2004).
Where “and” joins values, the source holds several entries; their conditions need not be identical. Equal entries are not always repeated. Toxic doses and inconclusive results are not listed. Cut-off read from the data, not from the text of the source: active = T/C of 150% or more; inactive = T/C below 125%.

Tested on: L1210 leukemia ip in BDF1 mice, survival T/C
Test: NCI In Vivo Anticancer Drug Screen. Data for tumor model L1210 Leukemia (intraperitoneal) in B6D2F1 (BDF1) mice
Details: endpoint: mean survival time, higher = longer survival
How it was run: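 Mice bearing the transplanted tumor received compound or vehicle. Survival of the treated group was divided by that of the vehicle-treated control group to give the ratio.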

[1] = dose: 100.0 mg/kg/injection, schedule: Q01DX001 (ip), vehicle: carboxymethylcellulose (CMC)
[2] = dose: 200.0 mg/kg/injection, schedule: Q01DX001 (ip), vehicle: carboxymethylcellulose (CMC)
[3] = dose: 400.0 mg/kg/injection, schedule: Q01DX001 (ip), vehicle: carboxymethylcellulose (CMC)
[4] = dose: 100.0 mg/kg/injection, schedule: Q04DX003 (ip), vehicle: saline
[5] = dose: 100.0 mg/kg/injection, schedule: Q01DX001 (ip), vehicle: saline
[6] = dose: 200.0 mg/kg/injection, schedule: Q01DX001 (ip), vehicle: saline

Measured: T/C

NC1=C(Cl)C(=O)c2ccccc2C1=O
inactive: dose: 25.0 mg/kg/injection, schedule: Q04DX003 (ip), vehicle: saline with Tween-80 100 % of control | dose: 50.0 mg/kg/injection, schedule: Q04DX003 (ip), vehicle: saline with Tween-80 101 % of control | dose: 100.0 mg/kg/injection, schedule: Q04DX003 (ip), vehicle: saline with Tween-80 90 % of control

ClC(=Nc1ccccc1)c1cc(Cl)ccn1
inactive: [1] 92 % of control | [2] 94 % of control | [3] 100 % of control

CCCCN(CCCC)CCN(CCCC)CCN(CCCC)CCCC
inactive: dose: 25.0 mg/kg/injection, schedule: Q04DX003 (ip), vehicle: saline 103 % of control | dose: 50.0 mg/kg/injection, schedule: Q04DX003 (ip), vehicle: saline 98 % of control | [4] 98 % of control and 89 % of control

CC(C)C(=O)NC(Cc1ccccc1)C(=O)N(Cc1ccccc1)N=O (configuration not stated)
inactive: dose: 32.0 mg/kg/injection, schedule: Q04DX002 (ip), vehicle: Klucel (hydroxypropylcellulose) (HPC) 94 % of control | dose: 63.0 mg/kg/injection, schedule: Q04DX002 (ip), vehicle: Klucel (hydroxypropylcellulose) (HPC) 97 % of control | dose: 125.0 mg/kg/injection, schedule: Q04DX002 (ip), vehicle: Klucel (hydroxypropylcellulose) (HPC) 94 % of control

CC1=C(N)NN(O)C=C1
inactive: dose: 100.0 mg/kg/injection, schedule: Q04DX002 (ip), vehicle: saline 104 % of control | dose: 200.0 mg/kg/injection, schedule: Q04DX002 (ip), vehicle: saline 116 % of control | dose: 400.0 mg/kg/injection, schedule: Q04DX002 (ip), vehicle: saline 101 % of control

COc1cc(/C=C2\CCNC2=O)ccc1OCc1ccccc1
inactive: dose: 50.0 mg/kg/injection, schedule: Q01DX001 (ip), vehicle: carboxymethylcellulose (CMC) 94 % of control | [1] 105 % of control | [2] 97 % of control | [3] 103 % of control

Nc1ncnn1Cc1ccccc1
inactive: [5] 96 % of control | [4] 101 % of control | [6] 97 % of control | dose: 200.0 mg/kg/injection, schedule: Q04DX003 (ip), vehicle: saline 106 % of control | dose: 400.0 mg/kg/injection, schedule: Q01DX001 (ip), vehicle: saline 100 % of control | dose: 400.0 mg/kg/injection, schedule: Q04DX003 (ip), vehicle: saline 101 % of control

CC(C)(C)OC(=O)C(=O)C(OC(C)(C)C)C(=O)OC(C)(C)C (configuration not stated)
inactive: [5] 98 % of control | [6] 102 % of control

O=c1ccn(Cc2cccc(Oc3ccccc3)c2)c(=O)[nH]1
inactive: dose: 100.0 mg/kg/injection, schedule: Q01DX001 (ip), vehicle: saline with Tween-80 92 % of control | dose: 200.0 mg/kg/injection, schedule: Q01DX001 (ip), vehicle: saline with Tween-80 93 % of control | dose: 400.0 mg/kg/injection, schedule: Q01DX001 (ip), vehicle: saline with Tween-80 92 % of control

CC(C)C1c2ccccc2C(=O)C1C(N)=O (configuration not stated)
inactive: [1] 90 % of control | [2] 100 % of control | [3] 93 % of control

C=C(C)C(=O)[O][Sn]([CH2]CCC)([CH2]CCC)[CH2]CCC
inactive: dose: 0.39 mg/kg/injection, schedule: Q01DX009 (ip), vehicle: saline 98 % of control | dose: 0.78 mg/kg/injection, schedule: Q01DX009 (ip), vehicle: saline 105 % of control | dose: 1.56 mg/kg/injection, schedule: Q01DX009 (ip), vehicle: saline 94 % of control | dose: 6.25 mg/kg/injection, schedule: Q01DX009 (ip), vehicle: saline 92 % of control

CCOC(=O)CNCc1ccc(C)cc1
inactive: dose: 100.0 mg/kg/injection, schedule: Q01DX009 (ip), vehicle: water 102 % of control | dose: 100.0 mg/kg/injection, schedule: Q04DX003 (ip), vehicle: water 93 % of control | dose: 200.0 mg/kg/injection, schedule: Q01DX009 (ip), vehicle: water 111 % of control | dose: 200.0 mg/kg/injection, schedule: Q04DX003 (ip), vehicle: water 93 % of control | dose: 400.0 mg/kg/injection, schedule: Q01DX009 (ip), vehicle: water 105 % of control | dose: 400.0 mg/kg/injection, schedule: Q04DX003 (ip), vehicle: water 97 % of control

C/C(=N/N=C(N)N)c1cccnc1
inactive: dose: 15.0 mg/kg/injection, schedule: Q01DX Z (ip), vehicle: saline 106 % of control | dose: 30.0 mg/kg/injection, schedule: Q01DX Z (ip), vehicle: saline 106 % of control | dose: 60.0 mg/kg/injection, schedule: Q01DX Z (ip), vehicle: saline 108 % of control | dose: 120.0 mg/kg/injection, schedule: Q01DX Z (ip), vehicle: saline 93 % of control
